Results on four compounds are retold here after US20040242869A1, “Semicarbazides and their uses” (priority 2001, published 2004).

In general, melting point refers to the temperature of the solid-liquid transition. `COc1ccc(-c2[nH]nc3c2C(=O)c2c(NC(=O)NN4CCOCC4)cccc2-3)cc1` [Example 4, 1-[3-(4-methoxy-phenyl)-4-oxo-2,4-dihydro-indeno[1,2-c]pyrazol-5-yl]-3-morpholin-4-yl-urea]: the melting point lay within 290 to 291 °C. The result for `COc1ccc(-c2[nH]nc3c2C(=O)c2c(NC(N)=O)cccc2-3)cc1` [Example 5, [3-(4-methoxy-phenyl)-4-oxo-2,4-dihydro-indeno[1,2-c]pyrazol-5-yl]-urea] reads 267 to 269 °C; that for `COc1ccc(-c2[nH]nc3c2C(=O)c2c(NC(=O)CN4CCC(CN)CC4)cccc2-3)cc1` [Example 9, 2-(4-aminomethyl-piperidin-1-yl)-N-[3-(4-methoxy-phenyl)-4-oxo-2,4-dihydro-indeno[1,2-c]pyrazol-5-yl]-acetamide], over 300 °C; that for `COC(=O)Nc1cccc2c1C(=O)c1c-2n[nH]c1-c1ccc(OC)cc1` [Example 11, 3-(4-Methoxyphenyl)-5-methoxycarbonylamino-2H-indeno-[1,2-c]pyrazol-4-one], over 300 °C.
